The nature of data set [1]: Drug accumulation in tumor of nude mouse xenografted with human MCF7 cells intravenously at 231 kBq, iv administered as C14-lableled compound and assessed as radioactivity and measured at 1 hr post dose by digital autoradiographic analysis. Format: ADME, organism-based, Neoplasm. The note with it: in vivo. (In general: A xenograft is tissue or cells of one species grown in another, often human tumour cells in immunodeficient mice.)

Data set [2] in a line: Drug accumulation in tumor of nude mouse xenografted with human MCF7 cells at 231 kBq, iv administered as C14-lableled compound and assessed as radioactivity and measured at 3 hrs post dose by digital autoradiographic analysis. It counts as ADME, organism-based, Neoplasm. Particulars: in vivo; call rule not given here.
Data set [3] in a line: Ratio of drug level in tumor to muscle in nude mouse xenografted with human MCF7 cells at 231 kBq, iv administered as C14-lableled compound and assessed as radioactivity and measured at 1 hr post dose. Format: ADME, organism-based. Particulars: in vivo.
Data set [4] can be described thus: Ratio of drug level in tumor to muscle in nude mouse xenografted with human MCF7 cells at 231 kBq, iv administered as C14-lableled compound and assessed as radioactivity and measured at 3 hrs post dose. The note with it: in vivo. It counts as ADME, organism-based.
Data set [5] is described as follows: Biodistribution in muscle of OF1 mouse at 231 kBq, iv administered as C14-lableled compound and assessed as radioactivity and measured at 1 hr post dose by digital autoradiographic analysis. The note with it: in vivo. It counts as ADME, organism-based, Muscle tissue.
Data set [6] in a line: Biodistribution in brain of OF1 mouse at 231 kBq, iv administered as C14-lableled compound and assessed as radioactivity and measured at 1 hr post dose by digital autoradiographic analysis. Format: ADME, organism-based. Particulars: in vivo.
Data set [7] in a line: Biodistribution in heart of OF1 mouse at 231 kBq, iv administered as C14-lableled compound and assessed as radioactivity and measured at 1 hr post dose by digital autoradiographic analysis. Format: ADME, organism-based. The note with it: in vivo.
Data set [8] in a line: Biodistribution in lungs of OF1 mouse at 231 kBq, iv administered as C14-lableled compound and assessed as radioactivity and measured at 1 hr post dose by digital autoradiographic analysis. It counts as ADME, organism-based, Lung. Particulars: in vivo.
A short description of data set [9]: Biodistribution in liver of OF1 mouse at 231 kBq, iv administered as C14-lableled compound and assessed as radioactivity and measured at 1 hr post dose by digital autoradiographic analysis. It counts as ADME, organism-based. The note with it: in vivo.
Data set [10] in a line: Biodistribution in stomach of OF1 mouse at 231 kBq, iv administered as C14-lableled compound and assessed as radioactivity and measured at 1 hr post dose by digital autoradiographic analysis. Format: ADME, organism-based. Particulars: in vivo.
The nature of data set [11]: Biodistribution in kidney of OF1 mouse at 231 kBq, iv administered as C14-lableled compound and assessed as radioactivity and measured at 1 hr post dose by digital autoradiographic analysis. It counts as ADME, organism-based. Particulars: in vivo.
Data set [12] can be described thus: Biodistribution in spleen of OF1 mouse at 231 kBq, iv administered as C14-lableled compound and assessed as radioactivity and measured at 1 hr post dose by digital autoradiographic analysis. Format: ADME, organism-based. Particulars: in vivo.
Data set [13] is described as follows: Biodistribution in muscle of nude mouse xenografted with human MCF7 cells at 231 kBq, iv administered as C14-lableled compound and assessed as radioactivity and measured at 3 hrs post dose by digital autoradiographic analysis. Format: ADME, organism-based, Muscle tissue. The note with it: in vivo.
Data set [14] is described as follows: Biodistribution in brain of nude mouse xenografted with human MCF7 cells at 231 kBq, iv administered as C14-lableled compound and assessed as radioactivity and measured at 3 hrs post dose by digital autoradiographic analysis. Format: ADME, organism-based. The note with it: in vivo.
Data set [15] can be described thus: Biodistribution in heart of nude mouse xenografted with human MCF7 cells at 231 kBq, iv administered as C14-lableled compound and assessed as radioactivity and measured at 3 hrs post dose by digital autoradiographic analysis. Format: ADME, organism-based. Particulars: in vivo.
The nature of data set [16]: Biodistribution in lungs of nude mouse xenografted with human MCF7 cells at 231 kBq, iv administered as C14-lableled compound and assessed as radioactivity and measured at 3 hrs post dose by digital autoradiographic analysis. Particulars: in vivo. It counts as ADME, organism-based, Lung.
The nature of data set [17]: Biodistribution in stomach of nude mouse xenografted with human MCF7 cells at 231 kBq, iv administered as C14-lableled compound and assessed as radioactivity and measured at 3 hrs post dose by digital autoradiographic analysis. It counts as ADME, organism-based. Particulars: in vivo.
A short description of data set [18]: Biodistribution in kidney of nude mouse xenografted with human MCF7 cells at 231 kBq, iv administered as C14-lableled compound and assessed as radioactivity and measured at 3 hrs post dose by digital autoradiographic analysis. Particulars: in vivo. Format: ADME, organism-based.
Data set [19] is described as follows: Biodistribution in spleen of nude mouse xenografted with human MCF7 cells at 231 kBq, iv administered as C14-lableled compound and assessed as radioactivity and measured at 3 hrs post dose by digital autoradiographic analysis. Format: ADME, organism-based. Particulars: in vivo.
Data set [20] can be described thus: Drug excretion in OF1 mouse feces at 231 kBq, iv administered as C14-lableled compound and assessed as radioactivity and measured at 3 to 6 hrs post dose. The note with it: in vivo, time 3-6 hrs. It counts as ADME, organism-based.
The nature of data set [21]: Drug excretion in OF1 mouse urine at 231 kBq, iv administered as C14-lableled compound and assessed as radioactivity and measured at 3 to 6 hrs post dose. The note with it: in vivo, time 3-6 hrs. Format: ADME, organism-based.
The nature of data set [22]: Biodistribution in muscle of OF1 mouse at 292 kBq, iv administered as C14-lableled compound and assessed as radioactivity and measured at 1 hr post dose by digital autoradiographic analysis. Particulars: in vivo. Format: ADME, organism-based, Muscle tissue.
Data set [23] in a line: Biodistribution in brain of OF1 mouse at 292 kBq, iv administered as C14-lableled compound and assessed as radioactivity and measured at 1 hr post dose by digital autoradiographic analysis. Format: ADME, organism-based. The note with it: in vivo.
Data set [24] is described as follows: Biodistribution in heart of OF1 mouse at 292 kBq, iv administered as C14-lableled compound and assessed as radioactivity and measured at 1 hr post dose by digital autoradiographic analysis. It counts as ADME, organism-based. Particulars: in vivo.
Data set [25] in a line: Biodistribution in lungs of OF1 mouse at 292 kBq, iv administered as C14-lableled compound and assessed as radioactivity and measured at 1 hr post dose by digital autoradiographic analysis. Format: ADME, organism-based, Lung. Particulars: in vivo.
Data set [26] can be described thus: Biodistribution in liver of OF1 mouse at 292 kBq, iv administered as C14-lableled compound and assessed as radioactivity and measured at 1 hr post dose by digital autoradiographic analysis. Format: ADME, organism-based. Particulars: in vivo.
Data set [27] is described as follows: Biodistribution in stomach of OF1 mouse at 292 kBq, iv administered as C14-lableled compound and assessed as radioactivity and measured at 1 hr post dose by digital autoradiographic analysis. It counts as ADME, organism-based. The note with it: in vivo.
Data set [28] can be described thus: Biodistribution in kidney of OF1 mouse at 292 kBq, iv administered as C14-lableled compound and assessed as radioactivity and measured at 1 hr post dose by digital autoradiographic analysis. Particulars: in vivo. Format: ADME, organism-based.
Data set [29] in a line: Biodistribution in spleen of OF1 mouse at 292 kBq, iv administered as C14-lableled compound and assessed as radioactivity and measured at 1 hr post dose by digital autoradiographic analysis. Format: ADME, organism-based. Particulars: in vivo.
Data set [30] can be described thus: Biodistribution in muscle of nude mouse xenografted with human MCF7 cells at 292 kBq, iv administered as C14-lableled compound and assessed as radioactivity and measured at 6 hrs post dose by digital autoradiographic analysis. Format: ADME, organism-based, Muscle tissue. The note with it: in vivo.
Data set [31] can be described thus: Biodistribution in brain of nude mouse xenografted with human MCF7 cells at 292 kBq, iv administered as C14-lableled compound and assessed as radioactivity and measured at 6 hrs post dose by digital autoradiographic analysis. It counts as ADME, organism-based. Particulars: in vivo.
A short description of data set [32]: Biodistribution in heart of nude mouse xenografted with human MCF7 cells at 292 kBq, iv administered as C14-lableled compound and assessed as radioactivity and measured at 6 hrs post dose by digital autoradiographic analysis. It counts as ADME, organism-based. The note with it: in vivo.
The nature of data set [33]: Biodistribution in lung of nude mouse xenografted with human MCF7 cells at 292 kBq, iv administered as C14-lableled compound and assessed as radioactivity and measured at 6 hrs post dose by digital autoradiographic analysis. It counts as ADME, organism-based. The note with it: in vivo.
Data set [34] is described as follows: Biodistribution in stomach of nude mouse xenografted with human MCF7 cells at 292 kBq, iv administered as C14-lableled compound and assessed as radioactivity and measured at 6 hrs post dose by digital autoradiographic analysis. The note with it: in vivo. It counts as ADME, organism-based.
Data set [35] is described as follows: Biodistribution in kidney of nude mouse xenografted with human MCF7 cells at 292 kBq, iv administered as C14-lableled compound and assessed as radioactivity and measured at 6 hrs post dose by digital autoradiographic analysis. Format: ADME, organism-based. Particulars: in vivo.
Data set [36] can be described thus: Biodistribution in spleen of nude mouse xenografted with human MCF7 cells at 292 kBq, iv administered as C14-lableled compound and assessed as radioactivity and measured at 6 hrs post dose by digital autoradiographic analysis. Format: ADME, organism-based. Particulars: in vivo.
Data set [37] can be described thus: Drug excretion in OF1 mouse feces at 292 kBq, iv administered as C14-lableled compound and assessed as radioactivity and measured at 3 to 6 hrs post dose. It counts as ADME, organism-based. The note with it: in vivo, time 3-6 hrs.
The nature of data set [38]: Drug excretion in OF1 mouse urine at 292 kBq, iv administered as C14-lableled compound and assessed as radioactivity and measured at 3 to 6 hrs post dose. It counts as ADME, organism-based. The note with it: in vivo, time 3-6 hrs.

Molecules are shown by their SMILES.

For the compound `CCCCN1CCN(c2ccc(S(=O)(=O)Oc3cc(OC)c(OC)c(OC)c3)cc2)[14C]1=O`, the Drug uptake in data set [1] is 1.6%; in data set [2], 0.8%; in data set [5], “Active”; in data set [6], “Active”; in [7], “Active”; in data set [8], “Active”. Besides, the Drug uptake entry in data set [9] is “Active”; in data set [10], “Active”; in data set [11], “Active”; in data set [12] it was “Active”; in data set [13] it was “Not Active”; in data set [14] it was “Not Active”. The Drug uptake entry in [15], in [16], in data set [17], in [18] and in data set [19] was “Not Active” each time. Moreover, the Ratio in data set [3] stood at 1.1; in [4], 2.5. Further, the Drug excretion entry in [20] and in [21] was “Active” in each case.
On to `COc1cc(OS(=O)(=O)c2ccc(N3CCN[14C]3=O)cc2)cc(OC)c1OC`, for which the Drug uptake entry in [22], in data set [23], in [24], in data set [25], in data set [26] and in [27] was “Active” throughout. In addition, the Drug uptake result is recorded as “Active” in [28]; “Active” in data set [29]; “Not Active” in data set [30]; “Not Active” in data set [31]; “Not Active” in data set [32]; “Not Active” in data set [33]. In addition, the Drug uptake entry in data set [34], in data set [35] and in data set [36] was “Not Active” throughout. Besides, the Drug excretion entry in data set [37] and in data set [38] was “Active” in each case.

The values above are taken from ChEMBL document CHEMBL5316344, “Homologation of the Alkyl Side Chain of Antimitotic Phenyl 4-(2-Oxo-3-alkylimidazolidin-1-yl)benzenesulfonate Prodrugs Selectively Targeting CYP1A1-Expressing Breast Cancers Improves Their Stability in Rodent Liver Microsomes” (J Med Chem, 2023).
